system: apomorphine-induced vomiting in dogs; assay: Apomorphine-induced vomiting test in dogs (antiemetic activity, subcutaneous); type: in vivo, beagle dogs; conditions: Canis lupus familiaris, sc, 1 h, read-out: ED50 (dose which protects 50% of the animals from emesis), Table I

| SMILES | ED50 |
| --- | --- |
| O=C1NCN(c2ccccc2)C12CCN(CCCn1c(=O)[nH]c3cc(Cl)ccc31)CC2 [L=H, R1=5-Cl, R4=H, R5=H, 8-[3-(5-chloro-1,3-dihydro-2-oxo-2H-benzimidazol-1-yl)propyl]-1-phenyl-1,3,8-triazaspiro[4,5]decan-4-one] | 0.05 mg/kg |
| O=C1NCN(c2cccc(C(F)(F)F)c2)C12CCN(CCCn1c(=O)[nH]c3ccccc31)CC2 [L=H, R1=H, R4=H, R5=3-CF3, 8-[3-(2,3-dihydro-2-oxo-1H-benzimidazol-1-yl)propyl]-1-[3-(trifluoromethyl)phenyl]-1,3,8-triazaspiro[4,5]decan-4-one] | 0.025 mg/kg |
| O=C1NCN(c2ccc(F)cc2)C12CCN(CCCn1c(=O)[nH]c3ccccc31)CC2 [L=H, R1=H, R4=H, R5=4-F] | 0.04 mg/kg |
| O=C1NCN(c2ccc(F)cc2)C12CCN(CCCn1c(=O)[nH]c3cc(Cl)ccc31)CC2 [L=H, R1=5-Cl, R4=H, R5=4-F, 8-[3-(5-chloro-1,3-dihydro-2-oxo-2H-benzimidazol-1-yl)propyl]-1-(4-fluorophenyl)-1,3,8-triazaspiro[4,5]decan-4-one] | 0.015 mg/kg |
| CN1CN(c2ccccc2)C2(CCN(CCCn3c(=O)[nH]c4ccccc43)CC2)C1=O [L=H, R1=H, R4=CH3, R5=H, 8-[3-(1,3-dihydro-2-oxo-2H-benzimidazol-1-yl)propyl]-3-methyl-1-phenyl-1,3,8-triazaspiro[4,5]decan-4-one] | 0.015 mg/kg |
| Cc1ccc2c(c1)[nH]c(=O)n2CCCN1CCC2(CC1)C(=O)NCN2c1ccccc1 [L=H, R1=5-CH3, R4=H, R5=H, 8-[3-(1,3-dihydro-5-methyl-2-oxo-2H-benzimidazol-1-yl)propyl]-1-phenyl-1,3,8-triazaspiro[4,5]decan-4-one] | 0.06 mg/kg |
| C=CCn1c(=O)n(CCCN2CCC3(CC2)C(=O)NCN3c2ccccc2)c2ccccc21 [L=CH2CHCH2, R1=H, R4=H, R5=H, 8-{3-[1,3-dihydro-2-oxo-3-(2-propenyl)-2H-benzimidazol-1-yl]propyl}-1-phenyl-1,3,8-triazaspiro[4,5]decan-4-one] | 0.25 mg/kg |
| Cn1c(=O)n(CCCN2CCC3(CC2)C(=O)NCN3c2ccccc2)c2ccccc21 [L=CH3, R1=H, R4=H, R5=H, 8-[3-(1,3-dihydro-3-methyl-2-oxo-2H-benzimidazol-1-yl)propyl]-1-phenyl-1,3,8-triazaspiro[4,5]-decan-4-one] | 0.08 mg/kg |
| O=C1NCN(c2ccccc2)C12CCN(CCCn1c(=O)[nH]c3ccccc31)CC2 [L=H, R1=H, R4=H, R5=H, 8-[3-(1,3-dihydro-2-oxo-2H-benzimidazol-1-yl)propyl]-1-phenyl-1,3,8-triazaspiro[4,5]decan-4-one] | 0.03 mg/kg |

same assay, conditions: Canis lupus familiaris, sc, 1 h, read-out: ED50 (dose which protects 50% of the animals from emesis), Table II

| SMILES | ED50 |
| --- | --- |
| O=c1[nH]c2ccccc2n1CCCN1CCC(n2c(=O)[nH]c3cc(Cl)ccc32)CC1 [5-chloro-1-{1-[3-(1,3-dihydro-2-oxo-2H-benzimidazol-1-yl)propyl]-4-piperidinyl}-1,3-dihydro-2H-benzimidazol-2-one] | 0.01 mg/kg |

same assay, conditions: Canis lupus familiaris, sc, 1 h, read-out: ED50 (dose which protects 50% of the animals from emesis), Table III

| SMILES | ED50 |
| --- | --- |
| O=c1[nH]c2ccccc2n1CCCN1CCC(O)(c2ccc(Cl)cc2)CC1 [L=H, R8=4-Cl, R9=H, 1-{3-[4-(4-chlorophenyl)-4-hydroxy-1-piperidinyl]-propyl}-1,3-dihydro-2H-benzimidazol-2-one] | 0.06 mg/kg |
| C=CCn1c(=O)n(CCCN2CCC(O)(c3ccc(Cl)cc3)CC2)c2ccccc21 [L=CH2CHCH2, R8=4-Cl, R9=H, 1-{3-[4-(4-chlorophenyl) 4-hydroxy-1-piperidinyl]propyl}-1,3-dihydro-3-(2-propenyl)-2-H-benzimidazol-2-one] | 0.5 mg/kg |
| O=c1[nH]c2ccccc2n1CCCN1CCC(O)(c2ccc(Cl)c(C(F)(F)F)c2)CC1 [L=H, R8=4-Cl, R9=3-CF3, 1-[3-{4-[4-chloro-3-(trifluoromethyl)phenyl]-4-hydroxy-1-piperidinyl}propyl]-1,3-dihydro-2H-benzimidazol-2-one] | 0.015 mg/kg |

same assay, conditions: Canis lupus familiaris, sc, 1 h, read-out: ED50 (dose which protects 50% of the animals from emesis), Table IV

| SMILES | ED50 |
| --- | --- |
| O=C1NCN(c2ccccc2)C12CCN(CCCn1cnc3ccccc31)CC2 | 0.25 mg/kg |

same assay, conditions: Canis lupus familiaris, sc, beagle dogs, apomorphine 0.31 mg/kg s.c. 1 hour after compound; read-out: ED50 (dose which protects 50% of the animals from emesis), Table II

| SMILES | ED50 |
| --- | --- |
| O=c1[nH]c2ccccc2n1CCCN1CC=C(n2c(=O)[nH]c3ccccc32)CC1 [L=H, R1=H, R2=H, R3=H, ring drawing 47, R7=H, 1-{3-[3,6-dihydro-4-(1,3-dihydro-2-oxo-2H-benzimidazol-1-yl)-1-(2H)-pyridinyl]propyl}-1,3-dihydro-2H-benzimidazol-2-one] | 0.04 mg/kg |

same assay, conditions: Canis lupus familiaris, sc, beagle dogs, apomorphine 0.31 mg/kg s.c. 1 hour after compound; read-out: ED50 (dose which protects 50% of the animals from emesis), Table IV

| SMILES | ED50 |
| --- | --- |
| O=c1[nH]c2ccccc2n1CCCN1CCC(n2c(=S)[nH]c3cc(Cl)ccc32)CC1 | 0.004 mg/kg |
| O=c1[nH]c2cc(Cl)ccc2n1C1CCN(CCCn2c(=S)[nH]c3ccccc32)CC1 | 0.004 mg/kg |
| O=c1[nH]c2ccccc2n1CCCN1CCC(n2c(=S)[nH]c3ccccc32)CC1 | 0.025 mg/kg |
